# Laboratory results from ChEMBL document CHEMBL3045481, “Insecticide-induced resurgence of the whitebacked planthopper Sogatella furcifera (Horvath) (Hemiptera: Delphacidae) on rice varieties with different levels of resistance” (Crop Prot, 2011).
# Experiments:
# [1] = system: Oryza sativa; assay: Effect on total sugar level in Sogatella furcifera-sensitive Oryza sativa (rice) plant ARC6248 leaf sheath measured per gram of dry weight at 0.025% concentration (reference value: 25.98 mg/g dry wt); format: ADME, organism-based; conditions: in vivo
# [2] = system: Oryza sativa; assay: Effect on total sugar level in Sogatella furcifera-resistanct Oryza sativa (rice) plant PR116 leaf sheath measured per gram of dry weight at 0.025% concentration (reference value: 30.27 mg/g dry wt); format: ADME, organism-based; conditions: in vivo
# [3] = system: Sogatella furcifera; assay: Insecticidal activity against Sogatella furcifera on insect-sensitive rice plant ARC6248 assessed as growth index at 0.025% concentration (reference value: 2.38%); format: functional
# [4] = system: Sogatella furcifera; assay: Insecticidal activity against Sogatella furcifera on insect-resistanct rice plant PR116 assessed as growth index at 0.025% concentration (reference value: 6.02%); format: functional
# [5] = system: Sogatella furcifera; assay: Insecticidal activity against Sogatella furcifera on insect-resistanct rice plant PR116 assessed as nymphal duration at 0.025% concentration (reference value: 11.75 days); format: functional
# [6] = system: Sogatella furcifera; assay: Insecticidal activity against Sogatella furcifera on insect-sensitive rice plant ARC6248 assessed as resurgence ratio at 0.025% concentration; format: functional
# [7] = system: Sogatella furcifera; assay: Insecticidal activity against Sogatella furcifera on insect-resistanct rice plant PR116 assessed as resurgence ratio at 0.025% concentration; format: functional
# [8] = system: Oryza sativa; assay: Effect on total phenols level in Sogatella furcifera-resistanct Oryza sativa (rice) plant PR116 leaf sheath measured per gram of dry weight at 0.025% concentration (reference value: 5.75 mg/g dry wt); format: ADME, organism-based; conditions: in vivo
# [9] = system: Oryza sativa; assay: Effect on total amino acids level in Sogatella furcifera-resistanct Oryza sativa (rice) plant PR116 leaf blade measured per gram of dry weight at 0.025% concentration (reference value: 3.91 mg/g […]); format: ADME, organism-based; conditions: in vivo
# [10] = system: Oryza sativa; assay: Effect on total amino acids level in Sogatella furcifera-sensitive Oryza sativa (rice) plant ARC6248 leaf sheath measured per gram of dry weight at 0.025% concentration (reference value: 2.11 mg/g fresh wt); format: ADME, organism-based; conditions: in vivo
# [11] = system: Oryza sativa; assay: Effect on total amino acids level in Sogatella furcifera-sensitive Oryza sativa (rice) plant ARC6248 leaf blade measured per gram of dry weight at 0.025% concentration (reference value: 3.54 mg/g […]); format: ADME, organism-based; conditions: in vivo
# [12] = system: Oryza sativa; assay: Effect on total protein level in Sogatella furcifera-sensitive Oryza sativa (rice) plant ARC6248 leaf blade measured per gram of dry weight at 0.025% concentration (reference value: 17.67 mg/g […]); format: ADME, organism-based; conditions: in vivo
# [13] = system: Oryza sativa; assay: Effect on total protein level in Sogatella furcifera-resistanct Oryza sativa (rice) plant PR116 leaf blade measured per gram of dry weight at 0.025% concentration (reference value: 21.67 mg/g fresh wt); format: ADME, organism-based; conditions: in vivo
# [14] = system: Oryza sativa; assay: Effect on reducing sugar level in Sogatella furcifera-sensitive Oryza sativa (rice) plant ARC6248 leaf blade measured per gram of dry weight at 0.025% concentration (reference value: 8.37 mg/g dry wt); format: ADME, organism-based; conditions: in vivo
# [15] = system: Oryza sativa; assay: Effect on total phenols level in Sogatella furcifera-sensitive Oryza sativa (rice) plant ARC6248 leaf blade measured per gram of dry weight at 0.025% concentration (reference value: 17.08 mg/g dry wt); format: ADME, organism-based; conditions: in vivo
# [16] = system: Oryza sativa; assay: Effect on total phenols level in Sogatella furcifera-resistanct Oryza sativa (rice) plant PR116 leaf blade measured per gram of dry weight at 0.025% concentration (reference value: 8.08 mg/g dry wt); format: ADME, organism-based; conditions: in vivo
# [17] = system: Oryza sativa; assay: Effect on reducing sugar level in Sogatella furcifera-resistanct Oryza sativa (rice) plant PR116 leaf blade measured per gram of dry weight at 0.025% concentration (reference value: 9.35 mg/g dry wt); format: ADME, organism-based; conditions: in vivo
# [18] = system: Oryza sativa; assay: Effect on total sugar level in Sogatella furcifera-sensitive Oryza sativa (rice) plant ARC6248 leaf blade measured per gram of dry weight at 0.025% concentration (reference value: 34.05 mg/g dry wt); format: ADME, organism-based; conditions: in vivo
# [19] = system: Oryza sativa; assay: Effect on total sugar level in Sogatella furcifera-resistanct Oryza sativa (rice) plant PR116 leaf blade measured per gram of dry weight at 0.025% concentration (reference value: 36.16 mg/g dry wt); format: ADME, organism-based; conditions: in vivo
# [20] = system: Oryza sativa; assay: Effect on total amino acids level in Sogatella furcifera-resistanct Oryza sativa (rice) plant PR116 leaf sheath measured per gram of dry weight at 0.025% concentration (reference value: 2.58 mg/g […]); format: ADME, organism-based; conditions: in vivo
# [21] = system: Oryza sativa; assay: Effect on total protein level in Sogatella furcifera-sensitive Oryza sativa (rice) plant ARC6248 leaf sheath measured per gram of dry weight at 0.025% concentration (reference value: 6.11 mg/g […]); format: ADME, organism-based; conditions: in vivo
# [22] = system: Oryza sativa; assay: Effect on total protein level in Sogatella furcifera-resistanct Oryza sativa (rice) plant PR116 leaf sheath measured per gram of dry weight at 0.025% concentration (reference value: 7.06 mg/g fresh wt); format: ADME, organism-based; conditions: in vivo
# [23] = system: Oryza sativa; assay: Effect on total phenols level in Sogatella furcifera-sensitive Oryza sativa (rice) plant ARC6248 leaf sheath measured per gram of dry weight at 0.025% concentration (reference value: 12.75 mg/g dry wt); format: ADME, organism-based; conditions: in vivo
# [24] = system: Sogatella furcifera; assay: Insecticidal activity against Sogatella furcifera on insect-sensitive rice plant ARC6248 assessed as nymphal survival at 0.025% concentration (reference value: 34.17%); format: functional
# [25] = system: Sogatella furcifera; assay: Insecticidal activity against Sogatella furcifera on insect-resistanct rice plant PR116 assessed as nymphal survival at 0.025% concentration (reference value: 70.28%); format: functional
# [26] = system: Sogatella furcifera; assay: Insecticidal activity against Sogatella furcifera on insect-sensitive rice plant ARC6248 assessed as nymphal duration at 0.025% concentration (reference value: 14.48 days); format: functional
# [27] = system: Oryza sativa; assay: Effect on reducing sugar level in Sogatella furcifera-sensitive Oryza sativa (rice) plant ARC6248 leaf sheath measured per gram of dry weight at 0.025% concentration (reference value: 6.41 mg/g dry wt); format: ADME, organism-based; conditions: in vivo
# [28] = system: Oryza sativa; assay: Effect on reducing sugar level in Sogatella furcifera-resistanct Oryza sativa (rice) plant PR116 leaf sheath measured per gram of dry weight at 0.025% concentration (reference value: 7.50 mg/g dry wt); format: ADME, organism-based; conditions: in vivo
structure (smiles),measurement,setting,value
CC1(C)[C@H](C(=O)O[C@H](C#N)c2cccc(Oc3ccccc3)c2)[C@@H]1C=C(Br)Br [DELTAMETHRIN],Activity,[1],35.36 mg
same,Activity,[2],35.62 mg
same,growth inhibition (GI),[3],2.74%
same,growth inhibition (GI),[4],6.77%
same,Time,[5],11.63 days
same,Ratio,[6],1.28
same,Ratio,[7],1.75
same,Activity,[8],5.42 mg
same,Activity,[9],4.62 mg
same,Activity,[10],2.95 mg
same,Activity,[11],4.21 mg
same,Activity,[12],19.83 mg
same,Activity,[13],23.89 mg
same,Activity,[14],12.28 mg
same,Activity,[15],17.08 mg
same,Activity,[16],6.92 mg
same,Activity,[17],14.35 mg
same,Activity,[18],38.84 mg
same,Activity,[19],44.2 mg
same,Activity,[20],3.73 mg
same,Activity,[21],7.78 mg
same,Activity,[22],8 mg
same,Activity,[23],12 mg
same,Survival,[24],38.89%
same,Survival,[25],78.05%
same,Time,[26],14.32 days
same,Activity,[27],10.76 mg
same,Activity,[28],13.8 mg
